Experimental data: publication PMC8482776 (ACS Omega, 2021)
In brackets after ≈: the same amount, converted by molar mass. Several values for one entry are separate records, joined by “and”; a condition that tells them apart may be missing. Identical values can stand only once.

Assays:
[1] = system: FLC-resistant clinical Candida isolate R6 (C. albicans); experiment: PMIC90, FLC-resistant isolate R6; type: cell-based; settings: strain R6, planktonic
[2] = system: FLC-resistant clinical Candida isolate R7 (C. glabrata); experiment: PMIC90, FLC-resistant isolate R7; type: cell-based; settings: strain R7, planktonic
[3] = system: C. albicans (ATCC 10231); experiment: Microdilution MIC90, strain A; type: cell-based; settings: strain A
[4] = system: C. albicans (ATCC 10231); experiment: Membrane permeabilization assay; type: cell-based; settings: 8b, 8c at 1 × MIC, 2 × MIC, 4 × MIC (0.5, 1, 2 μg/mL); AMB 1 μg/mL; 3 h at 28 °C
[5] = system: Asp. terreus (PTCC 5023); experiment: Microdilution MIC90, strain J; type: cell-based, Aspergillus terreus; settings: filamentous fungi, 48 h at 37 °C, triplicate
[6] = system: M. canis (PTCC 5069); experiment: Microdilution MIC90, strain O; type: cell-based; settings: Microsporum canis, PTCC5069, 48 h
[7] = system: FLC-resistant clinical Candida isolate R3 (C. albicans); experiment: PMIC90, FLC-resistant isolate R3; type: cell-based; settings: strain R3, planktonic
[8] = system: FLC-resistant clinical Candida isolate R2 (C. albicans); experiment: PMIC90, FLC-resistant isolate R2; type: cell-based; settings: strain R2, planktonic
[9] = system: Microsporum gypseum (PTCC 5070); experiment: Microdilution MIC90, strain L; type: cell-based; settings: filamentous fungi, 48 h at 37 °C, triplicate
[10] = system: T. rubrum (PTCC 5143); experiment: Microdilution MIC90, strain K; type: cell-based, Trichophyton rubrum; settings: Trichophyton rubrum, PTCC5143, 48 h, filamentous fungi, 48 h at 37 °C, triplicate
[11] = system: Asp. niger (PTCC 5154); experiment: Microdilution MIC90, strain I; type: cell-based, Aspergillus niger; settings: filamentous fungi, 48 h at 37 °C, triplicate
[12] = system: FLC-resistant clinical C. albicans isolate (R2) biofilm; experiment: Antibiofilm MTT reduction assay, strain R2; type: cell-based; settings: triplicate
[13] = system: FLC-resistant clinical C. albicans isolate (R1) biofilm; experiment: Antibiofilm MTT reduction assay, strain R1; type: cell-based; settings: triplicate
[14] = system: human red blood cells (hRBCs); experiment: Hemolysis assay; type: cell-based; settings: 100 μg/mL, 2 h at 37 °C
[15] = system: FLC-resistant clinical Candida isolate R1 (C. albicans); experiment: PMIC90, FLC-resistant isolate R1; type: cell-based; settings: strain R1, planktonic
[16] = system: C. albicans (ATCC 10231); experiment: Time-kill assay; type: cell-based; settings: 24 h period
[17] = system: Asp. fumigatus (PTCC 5009); experiment: Microdilution MIC90, strain H; type: cell-based; settings: filamentous fungi, 48 h at 37 °C, triplicate
[18] = system: FLC-resistant clinical Candida isolates (R1–R7); experiment: PMIC, seven FLC-resistant clinical Candida isolates; type: cell-based; settings: read-out: MIC (growth inhibition concentrations)
[19] = MTT cytotoxicity assay, A-431; type: cell-based, human; settings: human, A-431 epidermoid carcinoma cells
[20] = system: C. albicans (ATCC 10231); experiment: Murine model of systemic candidiasis; type: in vivo; settings: neutropenic mice (n = 5), 15 mg/kg oral gavage, left kidney tissue
[21] = system: T. schoenleinii (PTCC 5221); experiment: Microdilution MIC90, strain N; type: cell-based; settings: Trichophyton schoenleinii, PTCC5221, 48 h
[22] = system: T. mentagrophytes (PTCC 5054); experiment: Microdilution MIC90, strain M; type: cell-based; settings: Trichophyton mentagrophytes, PTCC5054, 48 h
[23] = system: Asp. flavus (ATCC 204304); experiment: Microdilution MIC90, strain G; type: cell-based, Aspergillus flavus; settings: Aspergillus flavus, ATCC204304, 48 h, filamentous fungi, 48 h at 37 °C, triplicate
[24] = system: C. krusei (ATCC 6258); experiment: Microdilution MIC90, strain B; type: cell-based
[25] = system: FLC-resistant clinical Candida isolate R4 (C. albicans); experiment: PMIC90, FLC-resistant isolate R4; type: cell-based; settings: strain R4, planktonic
[26] = system: FLC-resistant clinical Candida isolate R5 (C. albicans); experiment: PMIC90, FLC-resistant isolate R5; type: cell-based; settings: strain R5, planktonic
[27] = system: HDF normal cells; experiment: MTT cytotoxicity assay, HDF; type: cell-based, human; settings: HDF normal cell line, up to 100 μg/mL, 48 h
[28] = system: C. tropicalis (PTCC 5028); experiment: Microdilution MIC90, strain E; type: cell-based; settings: 24 h
[29] = system: PANC-1; experiment: MTT cytotoxicity assay, PANC-1; type: cell-based, human; settings: PANC-1, at 30 and 60 μg/mL, 48 h
[30] = system: C. glabrata (ATCC 90030); experiment: Microdilution MIC90, strain C; type: cell-based; settings: yeast, 24 h at 37 °C, triplicate
[31] = system: C. parapsilosis (ATCC 22019); experiment: Microdilution MIC90, strain D; type: cell-based; settings: 24 h
[32] = system: Asp. nidulans (PTCC 5014); experiment: Microdilution MIC90, strain F; type: cell-based, Aspergillus nidulans; settings: Aspergillus nidulans, PTCC5014, 48 h, filamentous fungi, 48 h at 37 °C, triplicate
[33] = 24 h, yeast, 24 h at 37 °C, triplicate

COc1ccc(NC(=O)Nc2nnc(SCC(O)(Cn3cncn3)c3ccc(F)cc3F)s2)cc1 (stereo not drawn) [Compound 8b, 1-(5-((2-(2,4-Difluorophenyl)-2-hydroxy-3-(1H-1,2,4-triazol-1-yl)propyl)thio)-1,3,4-thiadiazol-2-yl)-3-(4-methoxyphenyl)urea]
PMIC90 [1]: 2 µg/mL
PMIC90 [2]: 1 µg/mL
MIC90 [3, 33]: 0.5 µg/mL (≈ 0.962 µM)
fold greater potency than that of FLC ([3]; from MIC values): 32 fold
cellular uptake of the PI dye [4]: none of our compounds 8b and 8c (at 1 × MIC, 2 × MIC, or 4 × MIC) induced the cellular uptake of the PI dye
MIC90 ([5]; Aspergillus terreus, PTCC5023, 48 h): 2 to 4 µg/mL (≈ 3.85 to 7.7 µM)
MIC90 [5]: 4 μg·mL^–1
MIC90 [6]: 8 µg/mL (≈ 15.4 µM)
PMIC90 [7]: 2 µg/mL
PMIC90 [8]: 0.5 µg/mL
MIC90 [9]: 4 μg·mL^–1
MIC90 [10]: 2 µg/mL (≈ 3.85 µM)
MIC90 ([11]; Aspergillus niger, PTCC5154, 48 h): 2 to 4 µg/mL (≈ 3.85 to 7.7 µM)
MIC90 [11]: 4 μg·mL^–1
SMIC90 (sessile minimum inhibitory concentration that reduced the metabolic activity of biofilms by 90%) [12]: 1 µg/mL
SMIC90 (sessile minimum inhibitory concentration that reduced the metabolic activity of biofilms by 90%) [13]: 0.5 µg/mL
hemolysis (in words) [14]: limited hemolysis
PMIC90 [15]: 0.25 µg/mL
time-kill effect at 4 × MIC ([16]; at 4 × MIC (2 μg/mL for 8b, 8c; 64 μg/mL for FLC)): fungicidal activity of compound 8b significantly enhanced
time-kill effect at MIC ([16]; at MIC (0.5 μg/mL)): fungicidal effect
MIC90 ([17]; Aspergillus fumigatus, PTCC5009, 48 h): 2 to 4 µg/mL (≈ 3.85 to 7.7 µM)
MIC90 [17]: 1 μg·mL^–1
MIC [18]: 0.25 to 2 µg/mL (≈ 0.481 to 3.85 µM)
viability at 48 h, 100 μg/mL [19]: < 50%
kidney fungal burden, CFU/g (mean ± SD) [20]: 414 CFU/g and 414 ± 67.7 ^b CFU/g
MIC90 [21]: 8 µg/mL (≈ 15.4 µM)
MIC90 [22]: 4 µg/mL (≈ 7.7 µM)
MIC90 [23]: 8 µg/mL (≈ 15.4 µM)
MIC90 [24, 33]: 0.5 µg/mL (≈ 0.962 µM)
fold greater potency than that of FLC ([24]; from MIC values): 32 fold
PMIC90 [25]: 1 µg/mL
PMIC90 [26]: 2 µg/mL
toxicity (in words) [27]: none of the active compounds displayed toxicity
MIC90 [28]: 1 µg/mL (≈ 1.92 µM)
toxicity (in words) [29]: no toxicity
MIC90 ([30]; 24 h): 1 to 16 µg/mL (≈ 1.92 to 30.8 µM)
MIC90 [30]: 1 μg·mL^–1
MIC90 [31]: 2 µg/mL (≈ 3.85 µM)
MIC90 [32]: 8 µg/mL (≈ 15.4 µM)
